Measurements published in patent publication US9993462B2, “Hydantoin derivative-containing pharmaceutical composition” (Chugai Seiyaku Kabushiki Kaisha, priority 2014, dated 2018).

Assays:
[1] = target: T1, rat PTH1R (Rattus norvegicus, UniProt P25961); test: In vitro cAMP signaling activity via the rat PTH1R (LLC-PK46_RATO_PTH1R cells); format: cell-based; details: LLC-PK46_RATO_PTH1R cells overexpressing rat PTH1R
T1 construct: expressed in transfected cells
T1 sequence (P25961 27-591): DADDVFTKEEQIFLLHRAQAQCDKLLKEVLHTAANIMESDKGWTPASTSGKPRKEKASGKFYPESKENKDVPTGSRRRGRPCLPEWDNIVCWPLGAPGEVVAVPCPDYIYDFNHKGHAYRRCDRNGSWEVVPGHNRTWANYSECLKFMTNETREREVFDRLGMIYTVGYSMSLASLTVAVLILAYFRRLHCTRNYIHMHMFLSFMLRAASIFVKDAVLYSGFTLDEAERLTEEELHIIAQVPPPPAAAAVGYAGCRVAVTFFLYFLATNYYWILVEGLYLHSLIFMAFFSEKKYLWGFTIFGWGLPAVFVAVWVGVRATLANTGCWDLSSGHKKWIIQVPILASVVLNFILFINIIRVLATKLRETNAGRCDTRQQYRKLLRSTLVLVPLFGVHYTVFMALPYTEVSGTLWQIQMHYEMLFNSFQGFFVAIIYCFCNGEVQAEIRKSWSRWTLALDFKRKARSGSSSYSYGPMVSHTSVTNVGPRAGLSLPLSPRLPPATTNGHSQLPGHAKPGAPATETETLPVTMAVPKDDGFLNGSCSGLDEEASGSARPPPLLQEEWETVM
From the text: Instead of HKRK-B7 cells, LLC-PK46_RATO_PTH1R cells overexpressing rat PTH1R, which were established at Chugai Pharmaceutical, were used to take measurements in a similar manner to Reference Test Example 1.

[2] = system: TPTX rat; test: Calcemic action in the TPTX rat model; format: in vivo; details: TPTX rats, 30 mg/kg oral; for change of serum Ca concentration from the Pre-value (in words): up to 24 hours after administration
Experimental: Four-week old female Crl:CD(SD) rats were obtained from Charles River Japan (Atsugi Breeding Center), and were acclimated to standard laboratory conditions of 20-26° C. and 35-75% humidity for one week. The rats were given tap water and were fed ad libitum with standard rodent chow (CE-2) (CLEA Japan, Inc.) containing 1.1% calcium, 1.0% phosphoric acid, and 250 IU/100 g of vitamin D3.
TPTX was performed on five-week old rats. Some of the individuals were subjected to sham operation (Sham). Individuals whose serum Ca concentration was less than 8 mg/dL on four days after the operation were selected for use as TPTX rats. On five days after the operation, the rats were assigned to eight TPTX groups and one Sham group (n=5, each group) based on their body weight and serum Ca concentration measured on four days after the operation. The solvent alone was orally administered to the Sham group and the TPTX-Vehicle group at a volume of 10 mL/kg. Each test article was orally administered individually to each TPTX test article group by dissolving it in a solvent at a dose of 30 mg/10 mL/kg. The solvent composition was 10% dimethylsulfoxide (Wako Pure Chemical Industries, Ltd.), 10% Cremophor EL (Sigma-Aldrich Japan LLC), 20% hydroxypropyl-β-cyclodextrin (Nihon Shokuhin Kako Co., Ltd.), glycine (Wako Pure Chemical Industries, Ltd.); and the pH was adjusted to 10. Immediately before administration of each sample, Pre-blood collection was performed, and blood collection was carried out at 2, 6, 10, and 24 hours after administration to measure the serum Ca concentration. Each blood collection was carried out from the jugular vein under isoflurane inhalation anesthesia.
Serum Ca measurement: Serum obtained by centrifugation from the collected blood was measured by using an automatic analyzer TBA-120FR (Toshiba Medical Systems Corporation).
For statistical analysis of the animal studies, data are shown as mean±standard error (SE). Statistical analysis were performed by unpaired test of the SAS Preclinical Package (Ver. 5.00.010720, SAS Institute Japan, Tokyo, Japan).

[3] = target: T2, human PTH1R (Homo sapiens, UniProt Q03431); test: In vitro cAMP signal activity via the human PTH1R (HKRK-B7 cells); format: cell-based; details: concentration at 20% cAMP signaling activity, human PTH(1-34) at 100 nM = 100%
T2 construct: expressed in transfected cells; host or cells: HKRK-B7 (LLC-PK1 porcine kidney cells stably expressing human PTH1R)
T2 sequence (Q03431 27-593): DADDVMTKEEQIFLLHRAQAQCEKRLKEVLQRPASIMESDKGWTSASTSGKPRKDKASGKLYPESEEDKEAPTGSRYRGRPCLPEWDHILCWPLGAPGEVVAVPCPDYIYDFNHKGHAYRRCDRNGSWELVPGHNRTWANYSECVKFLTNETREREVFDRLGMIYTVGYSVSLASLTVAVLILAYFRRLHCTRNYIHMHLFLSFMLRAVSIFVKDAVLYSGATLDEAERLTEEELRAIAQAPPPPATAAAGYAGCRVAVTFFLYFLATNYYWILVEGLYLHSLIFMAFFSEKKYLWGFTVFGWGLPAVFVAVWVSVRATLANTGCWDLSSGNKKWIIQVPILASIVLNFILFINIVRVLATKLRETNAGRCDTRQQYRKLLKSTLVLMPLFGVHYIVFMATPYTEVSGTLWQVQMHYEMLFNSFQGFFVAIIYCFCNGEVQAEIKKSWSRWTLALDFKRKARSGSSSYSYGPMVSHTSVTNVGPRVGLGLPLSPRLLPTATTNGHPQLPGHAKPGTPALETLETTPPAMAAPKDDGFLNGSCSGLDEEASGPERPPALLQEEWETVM
Experimental: Human PTH(1-34) and calcitonin were purchased from Peptide Institute, Inc. (Osaka, Japan), dissolved in 10 mM acetic acid to 1 mM and stored in a −80° C. freezer.
Cells were cultured in Dulbecco's modified Eagle's medium (DMEM) supplemented with 10% fetal bovine serum (Hyclone), 100 units/ml penicillin G and 100 μg/ml streptomycin sulfate (Invitrogen Corp) at 37° C. in a humidified atmosphere containing 5% CO2.
cAMP signal transduction analysis utilized LLC-PK1 cells not expressing the PTH1R, and HKRK-B7 cells, that is, LLC-PK1 cells overexpressing the human PTH1R at 9.5×10^5 receptors/cell (Takasu et al., J. Bone. Miner. Res. 14:11-20, 1999).
HKRK-B7 or LLC-PK1 cells were seeded into a 96-well plate at 1×10^5 cells/well and incubated overnight. On the following day, 50 μl of cAMP assay buffer (DMEM, 2 mM IBMX, 0.2 mg/ml bovine serum albumin, 35 mM Hepes-NaOH, pH 7.4) containing human PTH(1-34) or each compound was added and the plate was placed in a 37° C. incubator. The cells were incubated for 20 minutes. After removing the medium, the cells were washed with 100 μl of cAMP assay buffer once. The plate was placed on dry ice powder to freeze the cells and then removed from the dry ice. The cells were lysed with 40 μl of 50 mM HCl and frozen again on dry ice. The amount of intracellular cAMP produced was measured using a commercially available cAMP EIA kit (Biotrack cAMP EIA system, GE health care).
Analyses were performed using a variable gradient S-shaped dose-response curve equation.

[4] = system: rat hepatocyte; test: Metabolic stability using rat hepatocyte; format: in vitro ADME
Experimental: Liver cells were prepared from the liver of rats (SD, female) by a collagenase perfusion method. A compound of the Reference Examples or a Comparative Example was added, and this was incubated at 37° C. for a specified amount of time, followed by addition of a reaction-stopping solution. The concentration of the parent compound at each reaction time was measured using LC/MS/MS, and inherent clearance (μL/10^6 cells/min) was calculated from the slope of the reaction time versus residual rate.
• Cell concentration: 1×10^6 cells/mL • Compound concentration: 1 μM • Medium: Williams' medium E • Reaction time: 0, 15, 30, 60, 120, and 240 minutes • Reaction-stopping solution: acetonitrile/2-propanol (4/6, v/v)

[5] = system: human articular chondrocytes; test: Proteoglycan synthesis by human articular chondrocytes (35S-sulfate incorporation); format: cell-based; details: TGF-β1 10 ng/mL, cultured for 13 days
Experimental: After purchase of cryopreserved human articular chondrocytes (Lot 2867, Cell Applications Inc.), the cells were thawed in a 37° C. water bath, 15 mL of Basal Medium supplemented with 10% Growth Supplement (Growth Medium, Cell Applications Inc.) was placed in a T75 culture flask (CORNING, Corning Japan K. K.) to culture the cells, and exchanged the next day with 15 mL of Growth Medium; and the cells were cultured for three days. Growth Medium was then removed, and HBSS (Cell Applications Inc.) was used to wash the chondrocyte layer. With addition of 1 mL of trypsin/EDTA solution (Cell Applications Inc.), this was left to stand at room temperature for approximately five minutes, and chondrocytes were detached from the flask. With 10 mL of Neutralization solution (Cell Applications Inc.) added, Bulker-Turk hemocytometer was used to determine the cell count, and the cells were then transferred to a 15-mL test tube for centrifugation (1,200 rpm for five minutes, Tomy Seiko Co., Ltd.) to produce a chondrocyte pellet. The supernatant was discarded, and the cells were placed in a 1.2% sodium alginate solution (25 mmol/L HEPES/150 mmol/L sodium chloride solution, pH7.0) at 2×10^6 cells/mL. This was drawn into a 1-mL syringe (Terumo Corporation) equipped with a 22G injection needle, five drops were added to each well of a 24-well plate (Corning Japan K.K.) containing 2 mL of 102 mmol/L aqueous CaCl2 solution, and this was left to stand for five minutes to form beads. Subsequently, this was washed three times with a 150 mmol/L sodium chloride solution and incubated for one day in Growth Medium, and the medium was exchanged with Basal Medium supplemented with 1% Growth supplement (Cell Applications Inc.). In this procedure, the following factors were added to the medium, and the cells were cultured for 13 days with three times of medium exchange performed per week.
On day 12 of culturing, ^35S-labeled sulfuric acid (PerkinElmer Japan Co., Ltd.) was added at 370 kBq/well, and the medium was collected 24 hours later into a test tube and stored at 4° C. To the alginate gel, a 55 mmol/L sodium citrate solution (Nacalai Tesque, Inc.; 1 mL/well) was added, and this was incubated at 37° C. for ten minutes for solation. This was collected into a microtube (Eppendorf AG) and then centrifuged (1,200 rpm, five minutes) to produce a chondrocyte pellet. […] The glass filter was transferred to a liquid scintillation counter vial, 5 mL of scintillator (Hionic-Fluor, PerkinElmer Japan Co., Ltd.) was added and radioactivity was measured on a liquid scintillation counter (TRI-CARB, PerkinElmer Japan Co., Ltd.).
The remaining 0.1 mL of the digested solution was used for DNA quantification. […]

## Cc1cc(N2C(=O)CNC2=O)ccc1CCS(=O)(=O)N1CCC2(CC1)N=C(c1cccc(OC(F)(F)F)c1)NC2=O [Comparative Example 1, reference compound]
[1]
  EC20: 800 nM
[2]
  achievement of the therapeutic target range of serum Ca concentration of 7.6 to 8.8 mg/dL: could not be achieved
  change of serum Ca concentration from the Pre-value (in words): smaller positive changes from the Pre-value
[3]
  EC20: 1500 nM

## Cc1cc(N2C(=O)NC(=O)C23CCCC3)cc(C)c1CCS(=O)(=O)N1CCC2(CC1)N=C(c1ccc(OC(F)(F)F)cc1)NC2=O [Compound 8, 1-(3,5-dimethyl-4-(2-((4-oxo-2-(4-(trifluoromethoxy)phenyl)-1,3,8-triazaspiro[4.5]deca-1-en-8-yl)sulfonyl)ethyl)phenyl)-1,3-diazaspiro[4.4]nonane-2,4-dione]
[1]
  EC20: 400 nM
[2]
  achievement of the therapeutic target range of serum Ca concentration of 7.6 to 8.8 mg/dL: achieved the therapeutic target range
  change of serum Ca concentration from the Pre-value (in words): large positive changes from the Pre-value
[4]
  rat hepatocyte metabolic stability compared to Comparative Examples 1, 2, 3, 5, and 6 (in words): increased

## Cc1cc(N2C(=O)NC(=O)C23COC3)cc(C)c1CCS(=O)(=O)N1CCC2(CC1)N=C(c1ccc(OC(F)(F)F)cc1)NC2=O [Compound 10, 5-(3,5-dimethyl-4-(2-((4-oxo-2-(4-(trifluoromethoxy)phenyl)-1,3,8-triazaspiro[4.5]deca-1-en-8-yl)sulfonyl)ethyl)phenyl)-2-oxa-5,7-diazaspiro[3.4]octane-6,8-dione]
[1]
  EC20: 3000 nM
[4]
  rat hepatocyte metabolic stability compared to Comparative Examples 1, 2, 3, 5, and 6 (in words): increased
[3]
  EC20: 5000 nM

## Cc1cc(N2C(=O)NC(=O)C23CC3)cc(C)c1CCS(=O)(=O)N1CCC2(CC1)N=C(c1ccc(OC(F)(F)F)cc1)NC2=O [Compound 11, 4-(3,5-dimethyl-4-(2-((4-oxo-2-(4-(trifluoromethoxy)phenyl)-1,3,8-triazaspiro[4.5]deca-1-en-8-yl)sulfonyl)ethyl)phenyl)-4,6-diazaspiro[2.4]heptane-5,7-dione]
[1]
  EC20: 800 nM
[4]
  rat hepatocyte metabolic stability compared to Comparative Examples 1, 2, 3, 5, and 6 (in words): increased
[3]
  EC20: 1500 nM

## TGF-β1: Positive control for proteoglycan synthesis, 10 ng/mL [reference compound]
[5]
  radioactivity (proteoglycan synthesis, cpm/μg DNA) relative to the vehicle control: 10 fold
